The values below come from BindingDB's records for doi:10.1111/j.1476-5381.1994.tb13148.x (Smithkline Beecham Pharmaceuticals, 1994).

Some targets named below: D(1A) dopamine receptor (Homo sapiens, UniProt P21728); D(2) dopamine receptor (Homo sapiens, UniProt P14416); D(3) dopamine receptor (Homo sapiens, UniProt P35462).
Experiment [1] deals with Beta-2 adrenergic receptor (Homo sapiens, UniProt P07550).
The target of experiment [2] is Gamma-aminobutyric acid receptor subunit alpha-1 (Rattus norvegicus, UniProt P62813).
In experiment [3] the target is 5-hydroxytryptamine receptor 1D (Cavia porcellus, UniProt Q60484).
Experiment [4] deals with T1, Gamma-aminobutyric acid receptor subunit alpha-1 (Homo sapiens, UniProt P14867).
T1 sequence (P14867 whole entry): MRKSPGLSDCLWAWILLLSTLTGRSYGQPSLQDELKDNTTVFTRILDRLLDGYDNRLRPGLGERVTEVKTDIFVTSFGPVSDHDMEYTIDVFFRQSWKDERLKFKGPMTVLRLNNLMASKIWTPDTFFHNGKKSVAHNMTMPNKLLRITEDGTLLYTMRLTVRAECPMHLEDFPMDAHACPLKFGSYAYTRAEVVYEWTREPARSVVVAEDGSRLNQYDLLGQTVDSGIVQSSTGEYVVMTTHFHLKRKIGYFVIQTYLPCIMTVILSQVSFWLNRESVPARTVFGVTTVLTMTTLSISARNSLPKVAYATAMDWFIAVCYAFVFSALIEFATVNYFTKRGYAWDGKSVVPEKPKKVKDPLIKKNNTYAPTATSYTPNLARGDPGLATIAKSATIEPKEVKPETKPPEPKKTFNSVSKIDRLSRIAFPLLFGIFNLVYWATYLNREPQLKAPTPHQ

Experiment [5] has as its target T2, 5-hydroxytryptamine receptor 3A (Rattus norvegicus, UniProt P35563).
T2 sequence (P35563 whole entry): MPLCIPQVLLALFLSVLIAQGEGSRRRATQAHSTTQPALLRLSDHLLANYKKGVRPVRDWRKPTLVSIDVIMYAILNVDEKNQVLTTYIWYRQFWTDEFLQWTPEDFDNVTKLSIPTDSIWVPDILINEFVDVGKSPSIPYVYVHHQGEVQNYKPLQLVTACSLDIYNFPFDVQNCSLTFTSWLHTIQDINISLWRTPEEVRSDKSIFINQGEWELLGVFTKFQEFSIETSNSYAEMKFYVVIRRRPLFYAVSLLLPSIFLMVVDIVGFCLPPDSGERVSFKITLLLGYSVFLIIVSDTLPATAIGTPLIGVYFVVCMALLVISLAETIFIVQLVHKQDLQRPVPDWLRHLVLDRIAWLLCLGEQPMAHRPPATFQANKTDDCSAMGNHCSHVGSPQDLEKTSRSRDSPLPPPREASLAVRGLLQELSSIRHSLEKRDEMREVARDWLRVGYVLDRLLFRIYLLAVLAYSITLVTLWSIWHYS

Experiment [6] deals with Beta-1 adrenergic receptor (Homo sapiens, UniProt P08588).
Experiment [7] addresses 5-hydroxytryptamine receptor 1E (Homo sapiens, UniProt P28566).
In the next experiment the target is T3, Adenosine receptor A1 (Rattus norvegicus, UniProt P25099).
T3 sequence (P25099 whole entry): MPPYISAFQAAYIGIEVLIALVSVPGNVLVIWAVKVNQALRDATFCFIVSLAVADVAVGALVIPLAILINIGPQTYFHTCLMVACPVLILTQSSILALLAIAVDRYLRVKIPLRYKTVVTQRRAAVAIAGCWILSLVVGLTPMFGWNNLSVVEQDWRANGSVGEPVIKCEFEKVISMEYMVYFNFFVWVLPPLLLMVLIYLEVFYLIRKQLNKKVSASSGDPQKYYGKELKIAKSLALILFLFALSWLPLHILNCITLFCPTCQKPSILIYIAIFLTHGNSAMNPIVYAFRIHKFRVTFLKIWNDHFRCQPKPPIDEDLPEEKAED

The target in experiment [8] is T4, 5-hydroxytryptamine receptor 2C (Sus scrofa, UniProt G7ZKZ7).
T4 sequence (G7ZKZ7 whole entry): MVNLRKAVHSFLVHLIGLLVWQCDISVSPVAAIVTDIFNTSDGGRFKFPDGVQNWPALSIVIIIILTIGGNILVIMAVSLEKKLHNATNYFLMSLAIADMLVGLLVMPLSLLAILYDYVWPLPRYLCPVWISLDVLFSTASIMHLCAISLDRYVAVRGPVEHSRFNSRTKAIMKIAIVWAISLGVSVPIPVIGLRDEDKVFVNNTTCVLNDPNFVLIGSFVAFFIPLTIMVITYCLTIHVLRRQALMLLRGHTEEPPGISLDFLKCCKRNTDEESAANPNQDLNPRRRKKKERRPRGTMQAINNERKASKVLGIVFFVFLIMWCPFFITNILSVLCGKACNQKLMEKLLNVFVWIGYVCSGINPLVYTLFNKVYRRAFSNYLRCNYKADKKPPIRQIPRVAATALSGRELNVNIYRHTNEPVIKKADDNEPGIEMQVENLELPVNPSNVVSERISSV

Experiment [9] addresses 5-hydroxytryptamine receptor 2A (Homo sapiens, UniProt P28223).
Experiment [10] has as its target T5, Solute carrier family 22 member 1 (Rattus norvegicus, UniProt Q63089).
T5 sequence (Q63089 whole entry): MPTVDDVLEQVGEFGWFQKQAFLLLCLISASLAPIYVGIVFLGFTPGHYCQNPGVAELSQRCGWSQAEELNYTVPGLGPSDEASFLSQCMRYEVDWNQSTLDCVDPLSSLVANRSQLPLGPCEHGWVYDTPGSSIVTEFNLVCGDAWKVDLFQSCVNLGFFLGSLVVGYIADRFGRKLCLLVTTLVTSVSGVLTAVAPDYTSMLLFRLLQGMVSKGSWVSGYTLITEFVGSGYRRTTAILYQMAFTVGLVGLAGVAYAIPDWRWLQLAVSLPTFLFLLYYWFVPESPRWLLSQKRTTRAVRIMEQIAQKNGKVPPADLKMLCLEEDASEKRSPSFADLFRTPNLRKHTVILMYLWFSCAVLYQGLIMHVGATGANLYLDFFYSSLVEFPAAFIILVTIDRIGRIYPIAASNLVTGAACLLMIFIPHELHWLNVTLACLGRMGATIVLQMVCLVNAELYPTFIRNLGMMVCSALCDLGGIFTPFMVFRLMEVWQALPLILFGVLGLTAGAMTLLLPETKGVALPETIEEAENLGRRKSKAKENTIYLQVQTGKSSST

Experiment [11] addresses T6, Adrenergic alpha2 receptor (Mesocricetus auratus, UniProt Q60533).
T6 sequence (Q60533 whole entry): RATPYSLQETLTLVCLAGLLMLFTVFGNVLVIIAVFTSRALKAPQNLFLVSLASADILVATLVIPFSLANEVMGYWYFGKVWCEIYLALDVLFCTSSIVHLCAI

Each structure is given as a SMILES string. Where only a bound is given, the exact number is not on record here.

Chain of D(3) dopamine receptor (P35462 as listed by the source): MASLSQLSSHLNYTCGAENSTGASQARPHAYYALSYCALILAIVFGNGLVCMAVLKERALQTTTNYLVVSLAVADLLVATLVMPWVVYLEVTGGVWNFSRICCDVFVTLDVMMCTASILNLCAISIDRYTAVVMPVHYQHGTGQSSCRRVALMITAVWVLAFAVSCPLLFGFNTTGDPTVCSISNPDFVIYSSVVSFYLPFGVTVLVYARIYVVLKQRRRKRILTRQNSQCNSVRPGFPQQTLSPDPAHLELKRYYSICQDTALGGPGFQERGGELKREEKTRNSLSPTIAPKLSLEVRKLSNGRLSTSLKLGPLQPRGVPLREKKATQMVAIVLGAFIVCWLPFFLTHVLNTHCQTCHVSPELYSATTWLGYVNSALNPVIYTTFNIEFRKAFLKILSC
Chain of 5-hydroxytryptamine receptor 2A (P28223 whole entry): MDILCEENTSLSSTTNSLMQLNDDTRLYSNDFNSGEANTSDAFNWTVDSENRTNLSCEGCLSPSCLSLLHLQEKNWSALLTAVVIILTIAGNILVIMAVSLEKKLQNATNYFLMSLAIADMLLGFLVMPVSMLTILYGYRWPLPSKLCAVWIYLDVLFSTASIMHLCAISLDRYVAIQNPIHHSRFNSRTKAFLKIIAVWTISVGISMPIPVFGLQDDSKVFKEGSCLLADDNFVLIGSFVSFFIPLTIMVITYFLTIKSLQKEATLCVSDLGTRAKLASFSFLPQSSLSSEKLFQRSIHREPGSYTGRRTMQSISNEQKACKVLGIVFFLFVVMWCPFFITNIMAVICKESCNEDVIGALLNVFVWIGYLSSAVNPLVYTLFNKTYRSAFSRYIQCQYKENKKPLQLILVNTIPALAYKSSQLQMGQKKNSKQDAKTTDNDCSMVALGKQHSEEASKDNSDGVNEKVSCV
Chain of Beta-1 adrenergic receptor (P08588 whole entry): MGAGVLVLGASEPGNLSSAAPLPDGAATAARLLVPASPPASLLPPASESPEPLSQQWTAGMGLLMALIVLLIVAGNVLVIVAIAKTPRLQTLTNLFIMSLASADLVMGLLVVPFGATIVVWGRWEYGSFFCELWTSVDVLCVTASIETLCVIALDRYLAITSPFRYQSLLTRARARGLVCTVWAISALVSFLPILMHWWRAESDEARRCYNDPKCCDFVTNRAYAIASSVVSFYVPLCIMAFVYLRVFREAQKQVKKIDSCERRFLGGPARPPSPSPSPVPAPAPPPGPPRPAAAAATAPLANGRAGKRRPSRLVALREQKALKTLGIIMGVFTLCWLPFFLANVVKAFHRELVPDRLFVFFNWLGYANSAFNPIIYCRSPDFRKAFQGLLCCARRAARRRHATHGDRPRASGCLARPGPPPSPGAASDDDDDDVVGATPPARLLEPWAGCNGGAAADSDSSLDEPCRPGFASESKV
Chain of Beta-2 adrenergic receptor (P07550 whole entry): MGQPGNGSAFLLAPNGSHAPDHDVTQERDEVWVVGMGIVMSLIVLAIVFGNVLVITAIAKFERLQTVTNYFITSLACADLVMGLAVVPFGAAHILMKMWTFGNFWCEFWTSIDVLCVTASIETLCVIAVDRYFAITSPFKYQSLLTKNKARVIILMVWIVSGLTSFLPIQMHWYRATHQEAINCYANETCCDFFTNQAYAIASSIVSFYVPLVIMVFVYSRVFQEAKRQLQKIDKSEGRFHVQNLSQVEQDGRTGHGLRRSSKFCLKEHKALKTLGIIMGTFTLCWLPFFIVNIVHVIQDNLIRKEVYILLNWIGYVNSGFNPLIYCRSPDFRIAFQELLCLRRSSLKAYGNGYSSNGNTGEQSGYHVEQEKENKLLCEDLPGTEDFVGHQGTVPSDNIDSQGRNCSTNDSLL
Chain of D(2) dopamine receptor (P14416 whole entry): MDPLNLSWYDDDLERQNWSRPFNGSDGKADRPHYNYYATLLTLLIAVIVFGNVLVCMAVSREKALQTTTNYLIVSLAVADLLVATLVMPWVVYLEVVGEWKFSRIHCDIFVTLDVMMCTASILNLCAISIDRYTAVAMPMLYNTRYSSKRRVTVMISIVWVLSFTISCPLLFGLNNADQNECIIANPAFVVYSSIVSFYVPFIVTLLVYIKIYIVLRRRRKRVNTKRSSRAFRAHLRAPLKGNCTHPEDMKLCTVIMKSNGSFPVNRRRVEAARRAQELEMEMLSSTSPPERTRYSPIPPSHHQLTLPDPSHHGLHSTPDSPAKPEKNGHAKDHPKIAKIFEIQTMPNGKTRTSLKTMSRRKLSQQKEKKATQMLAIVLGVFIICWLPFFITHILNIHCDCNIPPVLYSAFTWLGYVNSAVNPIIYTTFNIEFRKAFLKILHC
Chain of Gamma-aminobutyric acid receptor subunit alpha-1 (Rattus norvegicus, UniProt P62813) (P62813 whole entry): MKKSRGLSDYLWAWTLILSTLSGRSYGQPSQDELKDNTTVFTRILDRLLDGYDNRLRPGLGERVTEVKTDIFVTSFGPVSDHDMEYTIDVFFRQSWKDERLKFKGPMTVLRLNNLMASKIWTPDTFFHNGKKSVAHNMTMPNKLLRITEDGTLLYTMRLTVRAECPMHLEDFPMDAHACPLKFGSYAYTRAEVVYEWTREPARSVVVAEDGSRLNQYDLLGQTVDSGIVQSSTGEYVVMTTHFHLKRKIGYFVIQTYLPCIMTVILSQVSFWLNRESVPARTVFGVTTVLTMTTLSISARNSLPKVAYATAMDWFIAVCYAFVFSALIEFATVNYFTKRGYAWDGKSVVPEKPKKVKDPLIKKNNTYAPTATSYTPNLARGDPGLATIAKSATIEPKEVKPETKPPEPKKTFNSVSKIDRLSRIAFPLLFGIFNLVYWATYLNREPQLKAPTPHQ
Chain of 5-hydroxytryptamine receptor 1D (Q60484 whole entry): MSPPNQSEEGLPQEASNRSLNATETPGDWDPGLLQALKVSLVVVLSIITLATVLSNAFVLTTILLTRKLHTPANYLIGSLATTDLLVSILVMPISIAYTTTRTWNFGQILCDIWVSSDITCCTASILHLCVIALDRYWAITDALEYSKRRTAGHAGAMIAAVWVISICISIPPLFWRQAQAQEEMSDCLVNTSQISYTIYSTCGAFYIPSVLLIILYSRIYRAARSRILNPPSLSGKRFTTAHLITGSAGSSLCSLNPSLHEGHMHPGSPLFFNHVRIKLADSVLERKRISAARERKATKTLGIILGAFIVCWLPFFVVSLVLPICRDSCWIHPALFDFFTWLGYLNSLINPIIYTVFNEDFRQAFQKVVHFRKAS
Chain of D(1A) dopamine receptor (P21728 whole entry): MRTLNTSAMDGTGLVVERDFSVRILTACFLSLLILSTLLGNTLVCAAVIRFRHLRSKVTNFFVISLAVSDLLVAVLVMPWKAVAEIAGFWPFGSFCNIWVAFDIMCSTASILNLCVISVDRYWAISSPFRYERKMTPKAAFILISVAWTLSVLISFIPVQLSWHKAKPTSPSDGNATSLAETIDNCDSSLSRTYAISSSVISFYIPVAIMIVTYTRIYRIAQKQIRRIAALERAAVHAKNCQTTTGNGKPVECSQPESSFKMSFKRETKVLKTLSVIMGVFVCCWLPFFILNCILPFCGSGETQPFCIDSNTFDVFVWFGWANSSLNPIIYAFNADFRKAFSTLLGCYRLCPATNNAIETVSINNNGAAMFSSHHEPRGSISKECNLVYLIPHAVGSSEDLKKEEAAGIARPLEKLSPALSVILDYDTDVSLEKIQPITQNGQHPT
Chain of 5-hydroxytryptamine receptor 1E (P28566 whole entry): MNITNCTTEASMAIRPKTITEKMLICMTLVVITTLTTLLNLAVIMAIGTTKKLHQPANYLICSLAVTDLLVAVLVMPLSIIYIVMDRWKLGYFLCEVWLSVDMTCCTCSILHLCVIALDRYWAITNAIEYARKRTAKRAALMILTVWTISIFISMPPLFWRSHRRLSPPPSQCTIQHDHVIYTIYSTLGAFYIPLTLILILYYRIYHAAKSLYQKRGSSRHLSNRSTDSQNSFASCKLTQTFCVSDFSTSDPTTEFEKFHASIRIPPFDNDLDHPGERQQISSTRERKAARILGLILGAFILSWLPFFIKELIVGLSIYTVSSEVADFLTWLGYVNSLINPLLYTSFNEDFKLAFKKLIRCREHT

As for `CCCCN1CCC(COC(=O)c2cc(Cl)c(N)c3c2OCCO3)CC1` [CAS_121881], the Ki is 1 µM in experiment [1]; over 10 µM in experiment [2]; over 10 µM in experiment [3]; 1 µM on D(1A) dopamine receptor; over 10 µM in [4]; over 10 µM at D(2) dopamine receptor. Also, the inhibition constant Ki in [5] is 0.398 µM; in experiment [6], 1 µM; in experiment [7], over 10 µM; at Adenosine receptor A1, over 10 µM; in experiment [8], 0.126 µM; in [9] it was 1 µM. The Ki (in [10]; at D(3) dopamine receptor; in [11]) was 1 µM each time.
